# Measurements from patent publication US20240109903A1, “SUBSTITUTED HETEROCYCLES FOR TREATING CANCER” (Northwestern University, priority 2022, published 2024).
# Like-named read-outs stand apart in the source and are kept apart here.
# Experiments:
# Format in all cases: cell-based
# Settings in all cases: Homo sapiens
# UACC-257 = assay: NCI 60 five-dose screen UACC-257
# PC-3 = assay: NCI 60 five-dose screen PC-3
# NCI-H226 = assay: NCI 60 five-dose screen NCI-H226
# NCI/ADR-RES = assay: NCI 60 five-dose screen NCI/ADR-RES
# OVCAR-5 = assay: NCI 60 five-dose screen OVCAR-5
# A498 = assay: NCI 60 five-dose screen A498
# U251 = assay: NCI 60 five-dose screen U251
# SW-620 = assay: NCI 60 five-dose screen SW-620
# NCI-H522 = assay: NCI 60 five-dose screen NCI-H522
# HOP-62 = assay: NCI 60 five-dose screen HOP-62
# RPMI-8226 = assay: NCI 60 five-dose screen RPMI-8226
# UACC-62 = assay: NCI 60 five-dose screen UACC-62
# NCI-H460 = assay: NCI 60 five-dose screen NCI-H460
# DU-145 = assay: NCI 60 five-dose screen DU-145
# ACHN = assay: NCI 60 five-dose screen ACHN
# [1] = test system: MV-4-11 acute myeloid leukemia cells; assay: CellTiter-Glo 2.0 cell viability, MV-4-11
# Description: 2019 October; 94(4): 1813-1823.
# Cell viability was assessed using the CellTiter-Glo 2.0 assay from Promega, which yields a signal proportional to the amount of ATP present in a cell population. Compounds were first dispensed into empty 96-well flat-bottom tissue culture-treated plates (Corning) using an Echo550. MV4-1 cells were diluted to a density of 0.1 million cells per ml, pipetted onto the compounds at a density of 1,000 cells per well for U937 and 3,000 cells per well for MV4-11, mixed, and incubated for 3 days at 37° C. with 5% C02. After incubating, 5 μl of cells from each well were added to 5 μl of CellTiter-Glo 2.0 reagent in a384-well white ProxiPlate (PerkinElmer), incubated for 20 minutes at ambient temperature, and luminescence was analyzed on an EnSpire plate reader. Graphing and regression analysis was performed in Graphpad Prism.
# MDA-MB-435 = assay: NCI 60 five-dose screen MDA-MB-435
# BT-549 = assay: NCI 60 five-dose screen BT-549
# MDA-MB-468 = assay: NCI 60 five-dose screen MDA-MB-468
# HS 578T = assay: NCI 60 five-dose screen HS 578T
# CCRF-CEM = assay: NCI 60 five-dose screen CCRF-CEM
# NCI-H23 = assay: NCI 60 five-dose screen NCI-H23
# OVCAR-3 = assay: NCI 60 five-dose screen OVCAR-3
# SK-MEL-28 = assay: NCI 60 five-dose screen SK-MEL-28
# SK-MEL-5 = assay: NCI 60 five-dose screen SK-MEL-5
# [2] = read-out: LC50 (the source's name) (converted)
# [3] = read-out: LC50 (the source's name)
compound,measurement,setting,value
Fc1ccc(N2CC(Cn3c(C(F)(F)F)cc4c(Cl)ncnc43)C2)c(F)c1 [NUCC-0226695],GI50,UACC-257,3.09 µM
same,IC50,UACC-257,6.46 µM
same,IC (TGI),UACC-257,12 µM
same,CC50,UACC-257; [2],42.7 µM
same,GI50,PC-3,3.09 µM
same,IC50,PC-3,4.27 µM
same,IC (TGI),PC-3,11 µM
same,CC50,PC-3; [2],58.9 µM
same,GI50,NCI-H226,14.1 µM
same,IC50,NCI-H226,33.9 µM
same,IC (TGI),NCI-H226,30.9 µM
same,CC50,NCI-H226; [2],69.2 µM
same,GI50,NCI/ADR-RES,10.2 µM
same,IC50,NCI/ADR-RES,18.2 µM
same,IC (TGI),NCI/ADR-RES,26.3 µM
same,CC50,NCI/ADR-RES; [2],69.2 µM
same,GI50,OVCAR-5,17.8 µM
same,IC50,OVCAR-5,32.4 µM
same,IC (TGI),OVCAR-5,37.2 µM
same,CC50,OVCAR-5; [2],77.6 µM
same,GI50,A498,23.4 µM
same,IC50,A498,100 µM
same,IC (TGI),A498,74.1 µM
same,CC50,A498; [2],≥ 100 µM
same,GI50,U251; U-251,1.91 µM
same,IC50,U251; U-251,3.24 µM
same,IC (TGI),U251; U-251,3.8 µM
same,CC50,"U251; U-251, read-out: LC50 (the source's name) (converted)",7.76 µM
same,GI50,SW-620,1.91 µM
same,IC50,SW-620,3.16 µM
same,IC (TGI),SW-620,3.8 µM
same,CC50,SW-620; [2],7.76 µM
same,GI50,NCI-H522,1.82 µM
same,IC50,NCI-H522,3.47 µM
same,IC (TGI),NCI-H522,3.98 µM
same,CC50,NCI-H522; [2],8.71 µM
same,GI50,HOP-62,17 µM
same,IC50,HOP-62,32.4 µM
same,IC (TGI),HOP-62,33.9 µM
same,CC50,HOP-62; [2],66.1 µM
same,GI50,RPMI-8226,23.4 µM
same,IC50,RPMI-8226,37.2 µM
same,IC (TGI),RPMI-8226,64.6 µM
same,CC50,RPMI-8226; [3],≥ 100 µM
same,GI50,UACC-62,3.16 µM
same,IC50,UACC-62,5.62 µM
same,IC (TGI),UACC-62,12.9 µM
same,CC50,UACC-62; [2],36.3 µM
same,GI50,NCI-H460,3.98 µM
same,IC50,NCI-H460,4.68 µM
same,IC (TGI),NCI-H460,14.5 µM
same,CC50,NCI-H460; [2],44.7 µM
same,GI50,DU-145,12.6 µM
same,IC50,DU-145,21.9 µM
same,IC (TGI),DU-145,25.7 µM
same,CC50,DU-145; [2],52.5 µM
same,GI50,ACHN,12.9 µM
same,IC50,ACHN,21.9 µM
same,IC (TGI),ACHN,27.5 µM
same,CC50,ACHN; [2],58.9 µM
same,IC50,"[1]; MV4-11, 72 h, MV-4-11 cells, 3 days, CellTiter-Glo 2.0, read-out: IC50 (uM) [Cell Type: MV-4-11]",0.739 µM
same,IC50,"[1]; MV4-11, bound stated in text, read-out: IC50 against MV-4-11 acute myeloid leukemia cells",< 2 µM
same,GI50,MDA-MB-435,4.9 µM
same,IC50,MDA-MB-435,7.59 µM
same,IC (TGI),MDA-MB-435,17.8 µM
same,CC50,MDA-MB-435; [2],44.7 µM
same,GI50,BT-549,10.7 µM
same,IC50,BT-549,23.4 µM
same,IC (TGI),BT-549,22.9 µM
same,CC50,BT-549; [2],49 µM
same,GI50,MDA-MB-468,1.62 µM
same,IC50,MDA-MB-468,3.39 µM
same,IC (TGI),MDA-MB-468,3.24 µM
same,CC50,MDA-MB-468; [2],6.31 µM
same,GI50,HS 578T,7.08 µM
same,IC50,HS 578T,77.6 µM
same,IC (TGI),HS 578T,41.7 µM
same,CC50,HS 578T; [3],≥ 100 µM
same,GI50,CCRF-CEM,10.5 µM
same,IC50,CCRF-CEM,41.7 µM
same,IC (TGI),CCRF-CEM,100 µM
same,CC50,CCRF-CEM; [3],≥ 100 µM
same,GI50,NCI-H23,2.63 µM
same,IC50,NCI-H23,4.9 µM
same,IC (TGI),NCI-H23,8.32 µM
same,CC50,NCI-H23; [2],30.9 µM
same,GI50,OVCAR-3,2.57 µM
same,IC50,OVCAR-3,4.9 µM
same,IC (TGI),OVCAR-3,6.46 µM
same,CC50,OVCAR-3; [2],22.9 µM
same,GI50,SK-MEL-28,2.09 µM
same,IC50,SK-MEL-28,3.63 µM
same,IC (TGI),SK-MEL-28,4.9 µM
same,CC50,SK-MEL-28; [2],16.6 µM
same,GI50,SK-MEL-5,11 µM
same,IC50,SK-MEL-5,18.2 µM
same,IC (TGI),SK-MEL-5,22.9 µM
same,CC50,SK-MEL-5; [2],47.9 µM
